# From patent publication US7326540B2, “Methods for identifying compounds that modulate stabilization of secretase-associated proteins” (priority 2003, dated 2008)
# Key:
# [1] = system: E-cadherin; experiment: E-cadherin proteolysis in A431 cells during STS-induced apoptosis (Western blot, C36 antibody); type: cell-based, human; details: then STS 6 hours
# Procedure: FIG. 11 provides digitized images and graphs showing that apoptosis enhances γ-secretase activity and levels of γ-secretase complex proteins. FIG. 11a: Apoptosis was induced in CAB, CHO-CC99/PS1 and CHO-APP 751/PS1 by STS treatment for 6 hours with or without zVAD (100 μM). Secreted Aβ1−total was measured by ELISA. […] Each bar represents the mean and SD of quadruplicate determinations. FIG. 11b: Western blot analysis with the antibody, A8717, detected endogenous APP-FL and overexpressed C99 in CHO-CC99/PS1cells, while overexpressed APP-FL and C83 were detected in CHO-APP751/PS1 cells. FIG. 11c: A431 human epithelial cells were pre-incubated for 30 min in the absence (−) or presence (+) of zVAD-FMK (100 μM), L-685,458 (0.5 μM) or GM6001 (2.5 μM). Cells were then treated with STS for 6 hours to induce apoptosis, and cell extracts were probed with anti-E-cadherin C36 antibody. FIG. 11d: Protein levels of γ-secretase complex components were monitored by Western blotting employing the anti-nicastrin, Ab14, PNT2, H2D2 antibodies. Densitometry analysis was performed using NIH image software. Each bar represents the mean and SEM of at least three experiments. FIG. 11e: Nicastrin was transiently transfected in the A431 cells. Western blot analysis for E-cadherin and γ-secretase complex component was performed as in FIG. 11c and FIG. 11d β-tubulin was used as loading control.
# To confirm that apoptosis/caspase activation increases γ-secretase activity, we next examined the proteolysis of E-cadherin, another γ-secretase substrate (Marambaud, P. et al., Embo J21, 1948-56 (2002)) during apoptosis. We confirmed that caspase activation enhanced the production of E-Cad/CTF1 (Steinhusen, U. et al., J Biol Chem 276, 4972-80 (2001)), E-Cad/CTF2 (Marambaud, P. et al., 2002) (˜2- and 3-fold increase by densitometry analysis, respectively), and generated E-Cad/CTF3 (Marambaud, P. et al., 2002) (FIG. 11c). […]
# [2] = system: proteasome; experiment: Proteasome inhibition: BACE and nicastrin protein levels by Western blot in H4 cells; type: cell-based, human
# Procedure: Densitometric analysis was performed with NIH image and reported in bar graphs (FIG. 8B).
# [3] = system: BACE; experiment: BACE protein levels by Western blot and densitometry in CAB cells; type: cell-based, Chinese Hamster; details: etoposide (ETO) treatment, CAB cells
# Procedure: (§1) Chinese Hamster Ovary (CHO) cells expressing APP751 and BACE (CAB), CHO cells expressing full-length APP and wild-type PS1 (CHO-APP751/PS1) or expressing C99 and wild-type PS1 (CHO-CC99/PS1), H4 human neuroglioma cells expressing APP751 (H4-APP751), mouse embryonic fibroblast (MEF), embryonic stem (ES) cells, and human epithelial A431 cells were grown as described previously (Marambaud, P. et al., Embo J 21, 1948-56 (2002); Cai, H. et al., Nat Neurosci 4, 233-4 (2001); Sato, N. et al., Nat Cell Biol 2, 863-70 (2000); Puglielli, L., Ellis, B. C., Saunders, A. J. & Kovacs, D. M., J Biol Chem 278, 19777-83 (2003); Wolfe, M. S. et al., Nature 398, 513-7 (1999)). For the induction of apoptosis, we used staurosporine or etoposide (Calbiochem (EMD Biosciences, San Diego, Calif.)). For Aβ measurements, cells were seeded at the density of 0.5×10^6 cells per well in 6 well plates. After 48 hours, cells were treated with either STS (1 μM) for 6 hours. In order to inhibit caspase activation a sister plate of cells was pre-treated with zVAD (1001M, Enzyme Systems Products) for 1 hour before STS treatment. For time-course experiments, cells were seeded at the density of 2×10^6 cells per 100 mm dish and treated with STS (1 μM) or etoposide (100 μg/mL). At different time points (0, 3, 6, 9, 12 and 24 hours), the cells were scraped, centrifuged and then lysed in buffer containing 1% NP40. Western blot analysis was performed as previously described (Tesco, G., Koh, Y. H. & Tanzi, R. E., J Biol Chem 278, 46074-80 (2003)). Densitometry analysis was performed on a Macintosh computer using the public domain NIH Image program (developed at the U.S. National Institutes of Health and available on the Internet at http://rsb.info.nih.gov/nih-image/).
# It has been previously shown that overexpression of BACE enhances β-secretase cleavage of APP leading to the accumulation of intracellular C99 (Vassar, R. et al., Science 286, 735-41 (1999)). We first asked whether apoptosis/caspase activation leads to accumulation of C99 owing to increased β-secretase activity.
# [4] = system: Aβ production in CHO cells overexpressing APP751 and PS1 WT; experiment: Secreted Aβ ELISA in CHO cells overexpressing APP751 and PS1 during induced apoptosis; type: cell-based, Chinese Hamster; details: etoposide 100 μg/mL, 12 hrs
# Procedure: We examined Aβ generation induced by apoptosis in CHO cell lines. We used CHO cell lines stably overexpressing both APP751 and PS1 WT. For the induction of apoptosis, we used 1 μM staurosporine (STS) in serum free media. Secreted Aβ was measured in the conditioned media of cells treated with STS for 6 hrs using a sensitive ELISA assay [courtesy of Dr. Dennis Selkoe; M. S. Wolfe et al., Nature 398, 513-7 (1999)].
# Treatment with either STS for 6 hrs or etoposide for 12 hrs induced from 10 to 20% of cell death assayed by MTT assay, which is a colorimetric short-term suspension culture assay in which the yellow tetrazolium salt (MTT) is reduced in metabolically active cells to form insoluble purple formazan crystals, which are solubilized by the addition of a detergent.
# as §1, with “In order to inhibit caspase activation a sister plate of cells was pre-treated with zVAD (1001M, Enzyme Systems Products) for 1 hour before STS treatment.” left out
# Secreted Aβ1-total was measured in the conditioned media of untreated cells or of cells treated with STS or STS plus zVAD using a sensitive ELISA (Wolfe, M. S. et al., Nature 398, 513-7 (1999). At least three different experiments were carried out and each experiment was performed at least in triplicate.
smiles,measurement,setting,value
CNC(=O)[C@H](Cc1c[nH]c2ccccc12)NC(=O)[C@@H](CC(=O)NO)CC(C)C [GM6001],generation of E-Cad/CTF1,[1]; GM6001 2.5 μM pre-incubated 30 min,inhibited
"CC(C)C[C@H](NC(=O)[C@H](Cc1ccccc1)C[C@@H](O)[C@H](Cc1ccccc1)NC(=O)OC(C)(C)C)C(=O)N[C@@H](Cc1ccccc1)C(N)=O [L-685,458]",generation of E-Cad/CTF2,"[1]; L-685,458 0.5 μM pre-incubated 30 min",inhibited
"CC(=O)N[C@@H](CSC(=O)[C@]1([C@@H](O)C(C)C)NC(=O)[C@H](C)[C@@H]1O)C(=O)O [Lactacystin, lactacystin]",protein levels of nicastrin,"[2]; Lactacystin 10 μM for 24 hrs, medium containing 10% serum",increased
same,BACE full length and BACE-CTF levels,"[2]; Lactacystin treatment, H4 cells",did not affect
COc1cc([C@@H]2c3cc4c(cc3[C@@H](O[C@@H]3O[C@@H]5CO[C@@H](C)O[C@H]5[C@H](O)[C@H]3O)[C@H]3COC(=O)[C@H]23)OCO4)cc(OC)c1O [etoposide],BACE protein levels,[3],increase
same,Secreted Aβ1-42,[4],increased
same,Secreted Aβtotal,[4],increased
